# Experimental data from patent US20250145579A1, “PROCESS FOR MANUFACTURING AN LPXC ANALOG” (Zoetis Services LLC, priority 2022, published 2025).
# Entries after “also recorded” stand apart in the source; their conditions may differ.
# Test: Relative stability of isolated solid forms (slurry experiments, XRD)
# Assay type: physicochemical
# Conditions: for relative stability of the solid form: as isolated solids
# Method: A number of polymorphic forms of (R)-4-(4-(4-(2H-1,2,3-triazol-2-yl)phenyl)-2-oxopyridin-1 (2H)-yl)-N-hydroxy-2-methyl-2-(methylsulfonyl)-butanamide were prepared (Forms 1, 2 and 3) as API slurries in a number of protic and aprotic solvents. With the exception of acetonitrile, methyl ethyl ketone, and tetrahydrofuran, the use of aprotic solvents like ethyl, butyl or propyl acetate result in Form 1. With the exception of water, the use of protic solvents such as butyl, propyl and ethyl alcohol favor the formation of Form 2. An unstable Form 3 was also noted. The presence of water in alcohols increased the rate of Form 2 isolation from solution. […] The three forms were structurally related and were solvated and/or hydrated.
# The relative stability of the three isolated solid forms appears to be different as suspensions compared to isolated solids. […] As suspensions, the relative stability of these solvates is dependent on the solvent or solvent/water mixture that is present.
# It is very likely that these three solvated solids are nearly isostructural and differ in subtle ways that are linked to the way solvent or water are packed into the solvation sites in the structure. There is an increasing complexity of the XRD patterns with Form 1 being the most complex (most peaks) and Form 3 having the fewest peaks. This pattern complexity (F1>F2>F3) parallels the apparent stability of the dried isolated samples. Out of 384 solvent mixtures, a total of 90 samples were mixtures rather than pure phase Forms.
# The X-ray diffractograms were obtained on a Scintag X1 powder diffractometer equipped with a Peltier cooled solid state detector. Data were collected between 4 and 40° 20 using a 0.03° step size and data acquisition time was 45 to 60 minutes for sample characterization. Data collection for solids isolated from the bulk of the small scale preliminary experiments was at a 0.04° step size over 15 minutes between 7 and 37 degrees 2-theta. Copper Kα radiation (λ=1.54056 Å) was utilized and the tube voltage and amperage were set to 45 kV and 40 mA, respectively. […]
Structure (SMILES),relative stability of the solid form,stability of the solid form / form conversion (by XRD patterns of isolated solids from slurries)
"C[C@@](CCn1ccc(-c2ccc(-n3nccn3)cc2)cc1=O)(C(=O)NO)S(C)(=O)=O [Form 2, (R)-4-(4-(4-(2H-1,2,3-triazol-2-yl)phenyl)-2-oxopyridin-1 (2H)-yl)-N-hydroxy-2-methyl-2-(methylsulfonyl)-butanamide]",meta-stable relative to Form 1,–
"C[C@@](CCn1ccc(-c2ccc(-n3nccn3)cc2)cc1=O)(C(=O)NO)S(C)(=O)=O [Form 3, (R)-4-(4-(4-(2H-1,2,3-triazol-2-yl)phenyl)-2-oxopyridin-1 (2H)-yl)-N-hydroxy-2-methyl-2-(methylsulfonyl)-butanamide]",–,unstable; also recorded: meta-stable and converts to Form 2
"C[C@@](CCn1ccc(-c2ccc(-n3nccn3)cc2)cc1=O)(C(=O)NO)S(C)(=O)=O [Form 1, (R)-4-(4-(4-(2H-1,2,3-triazol-2-yl)phenyl)-2-oxopyridin-1 (2H)-yl)-N-hydroxy-2-methyl-2-(methylsulfonyl)-butanamide]",most stable form,–
